Measured values from PubChem BioAssay (NCI).
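Protocol summary: plate cells (96-well), add compound at 5 concentrations, incubate 48 h, interpolate endpoints linearly. TGI is the concentration that stops growth completely.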

Tests used:
Test in all cases: DTP human tumour cell line panel, 48 h
[1] = tested on: SK-MEL-2 melanoma
[2] = tested on: SR leukemia
[3] = tested on: SW-620 colon
[4] = tested on: K-562 leukemia
[5] = tested on: SF-295 CNS
[6] = tested on: UO-31 renal
[7] = tested on: SN12C renal
[8] = tested on: MALME-3M melanoma
[9] = tested on: HCT-15 colon
[10] = tested on: SNB-75 CNS
[11] = tested on: M14 melanoma
[12] = tested on: A549 NSCLC
[13] = tested on: SF-539 CNS
[14] = tested on: COLO 205 colon
[15] = tested on: NCI-H226 lung
[16] = tested on: OVCAR-5 ovarian
[17] = tested on: HCT-116 colon
[18] = tested on: UACC-257 melanoma
[19] = tested on: MDA-N
[20] = tested on: T-47D breast

Compound	TGI [1] [µM]	TGI [2] [µM]	TGI [3] [µM]	TGI [4] [µM]	TGI [5] [µM]	TGI [6] [µM]	TGI [7] [µM]	TGI [8] [µM]	TGI [9] [µM]	TGI [10] [µM]	TGI [11] [µM]	TGI [12] [µM]	TGI [13] [µM]	TGI [14] [µM]	TGI [15] [µM]	TGI [16] [µM]	TGI [17] [µM]	TGI [18] [µM]	TGI [19] [µM]	TGI [20] [µM]
CCOC(=O)N1c2c(ccn2C)-c2ccn(C)c2N1C(=O)OCC	38.8	43.8	28.6	42.4	29.7	35.4	29.6	37.1	26.5	33.7	30.8	39.4	38.2	57.1	37.5	35.5	29.4	–	–	–
C=CCN1C(=O)/C(=C\c2cc(C(C)(C)C)c(O)c(C(C)(C)C)c2)NC1=S	31.8	> 100	> 100	> 100	68.3	> 100	> 100	> 100	> 100	–	75.4	> 100	> 100	32.4	74.9	> 100	35.4	43.4	> 100	–
CC12CCC(C(Nc3cc(C(F)(F)F)cc(C(F)(F)F)c3)C1=O)C2(C)C (stereo not drawn)	> 100	> 100	> 100	> 100	> 100	> 100	–	> 100	> 100	–	> 100	> 100	> 100	> 100	> 100	> 100	> 100	> 100	–	> 100
Nc1nc(Cl)c(/C=N\O)c(NCC2(CO)CCC2)n1	–	> 100	> 100	> 100	> 100	> 100	> 100	> 100	> 100	> 100	–	> 100	> 100	> 100	> 100	> 100	> 100	> 100	> 100	–
Nn1c(CCCCCCCCc2nnc(COc3ccc4ccccc4c3O)n2N)nnc1COc1ccc2ccccc2c1O	> 100	–	> 100	> 100	98.1	> 100	> 100	> 100	> 100	> 100	78.4	> 100	–	35.1	79.1	37	29.3	> 100	–	–
O=S(=O)(c1ccccc1)C(c1ccc2ccccc2n1)S(=O)(=O)c1ccccc1	–	> 100	> 100	> 100	> 100	> 100	> 100	> 100	> 100	> 100	–	> 100	> 100	> 100	> 100	> 100	> 100	> 100	> 100	–
COc1c(OC(C)C)c(OC(C)C)c2oc(=O)n3c2c1C(c1ccccc1-n1c(C)ccc1C)C=C3 (stereo not drawn)	> 100	–	> 100	> 100	> 100	> 100	> 100	50	> 100	> 100	> 100	> 100	> 100	> 100	38.3	> 100	> 100	> 100	> 100	–
O=S(CC1(O)CCCCC1)c1ccccc1 (stereo not drawn)	> 100	> 100	> 100	> 100	> 100	> 100	> 100	> 100	> 100	> 100	> 100	> 100	–	> 100	> 100	> 100	> 100	> 100	–	> 100
Nc1c2ccccc2nc2ccc3c(=O)cc(-c4ccccc4)oc3c12	3.65	2.23	0.34	0.326	–	2.86	–	3.23	4.3	3.58	2.67	–	2.34	1.35	2.56	2.85	0.306	3.39	2.13	–
Cn1c(=O)n2n(c1=O)C(S(=O)(=O)c1ccccc1)C2 (stereo not drawn)	> 100	–	> 100	> 100	> 100	> 100	> 100	> 100	> 100	> 100	> 100	> 100	> 100	> 100	–	> 100	> 100	> 100	> 100	–
COc1ccccc1C(O)(c1ccccc1)C(O)(c1ccccc1)c1ccccc1OC (stereo not drawn)	> 100	> 100	> 100	> 100	> 100	> 100	> 100	> 100	> 100	> 100	> 100	> 100	> 100	> 100	> 100	> 100	> 100	> 100	–	–
C/C=C1\C=C(OC)CN(CCc2c[nH]c3ccccc23)C1	> 100	> 100	> 100	> 100	> 100	> 100	> 100	56.8	> 100	> 100	95.6	> 100	> 100	> 100	> 100	–	> 100	> 100	–	–
Cc1ccccc1NC(=O)c1c(C)oc2c1C(=O)c1ccccc1C2=O	> 72.3	75.5	> 57.9	57.9	> 100	> 100	> 100	27.3	> 74.8	> 100	> 69.9	> 96.1	> 68.5	> 100	> 100	> 100	> 100	52.7	–	–
O=C1Cc2c([nH]c3ccccc23)-c2ccccc2N1	> 100	–	66.7	> 100	> 100	> 100	> 100	> 100	> 100	> 100	> 100	> 100	55.2	45.9	> 100	67.4	31.9	> 100	–	–
Cc1nc(C(N)=S)sc1C(=O)CC(=O)C(=O)Nc1ccccc1[N+](=O)[O-]	> 100	> 100	> 100	> 100	> 100	> 100	–	> 100	> 100	> 100	> 100	> 100	> 100	–	–	> 100	> 100	> 100	–	–
COC(=O)C1=CSC2(S1)C(C(=O)OC)=CSc1c2ssc1=O (stereo not drawn)	5.92	–	2.93	> 23	40.5	3.25	5.1	6.18	3.31	8.16	6.65	28.3	3.17	4.03	44.9	21.9	3.16	4	4.92	–
O=C(O)C1CCCCC1C(=O)Nn1cnnc1 (stereo not drawn)	> 100	> 100	> 100	> 100	> 100	> 100	> 100	–	> 100	> 100	> 100	> 100	> 100	> 100	–	> 100	> 100	> 100	> 100	–
O=C1[C@H]2ON(c3ccccc3)C(c3ccccc3)[C@H]2C(=O)N1c1ccc(Cc2ccc(N3C(=O)[C@@H]4ON(c5ccccc5)C(c5ccccc5)[C@@H]4C3=O)cc2)cc1 (stereo partly drawn)	> 100	–	> 100	> 100	> 100	> 100	> 100	> 100	> 100	> 100	> 100	> 100	> 100	> 100	> 100	> 100	–	> 100	–	–
COc1ccc(P2(=S)Oc3ccccc3-c3ccccc3O2)cc1	> 100	–	> 100	> 100	> 100	–	–	> 100	> 100	> 100	> 100	> 54.9	0.537	2.77	> 100	> 100	> 38.7	> 100	–	> 100
CC(=O)O/C=C1/C[C@H]2[C@@H]3CCC4CC(C(C)=O)CC[C@]4(C)[C@H]3CC[C@]2(C)C1=O (stereo partly drawn)	> 100	> 100	> 100	> 100	> 100	> 100	> 100	> 100	> 100	–	–	–	–	–	> 100	> 100	> 100	> 100	> 100	–
CC(=O)[C@@H]1C/C(=C\OCc2ccccc2)O[C@H]1C	–	–	> 100	> 100	> 100	> 100	> 100	> 100	> 100	> 100	> 100	> 100	> 100	> 100	> 100	> 100	> 100	> 100	–	> 100
Cc1ccc(/C(O)=C/c2nc3c(nc2NC24CC5CC(CC(C5)C2)C4)c(=O)oc2ccccc23)cc1	> 100	> 100	> 100	> 100	–	> 100	> 100	> 100	> 100	70.1	> 100	> 100	> 100	> 100	> 100	> 100	> 100	> 100	–	–
N#Cc1c(=O)c2ccccc2n2c1[nH]c1ccccc12	> 100	43.8	> 100	> 100	> 100	> 100	> 100	–	> 100	> 100	> 100	> 100	> 100	> 100	> 100	> 100	> 100	> 100	–	79.7
CN(C)CC1CN=C(N)O1 (stereo not drawn)	> 100	–	> 100	> 100	> 100	> 100	> 100	> 100	> 100	–	> 100	> 100	> 100	> 100	> 100	> 100	> 100	> 100	> 100	–
CC(=O)NC1=C(NC(C)(C)C)C(=O)c2ccccc2C1=O	42.9	–	30.1	25.2	> 100	32.9	34.8	33.9	34.5	26.5	31.1	> 100	33.3	> 100	27.6	> 100	64.2	29.4	–	–
COc1cccc(/C=C2\CCCc3ccccc3C2=O)c1	27.4	31.3	35.5	48.2	30.7	29.7	33	43	26	> 100	25.6	> 100	32	35.6	49.3	38	27.9	33.2	–	–
CCC(C(=O)C(=O)C(CC)P1(=O)OC(C)(C)CN1C(C)(C)C)P1(=O)OC(C)(C)CN1C(C)(C)C (stereo not drawn)	> 100	> 100	> 100	> 100	> 100	> 100	> 100	–	> 100	> 100	> 100	> 100	> 100	> 100	> 100	–	> 100	> 100	–	> 100
